From ChEMBL document CHEMBL4350955, “Novel Chemical Series of 5-Lipoxygenase-Activating Protein Inhibitors for Treatment of Coronary Artery Disease” (J Med Chem, 2019)
pIC50: −log10 of the molar value. ≈ marks a conversion by molar mass, not a printed value.

How the values were obtained:
[1] = molecular target: T1, Arachidonate 5-lipoxygenase-activating protein (Homo sapiens) (UniProt P20292); experiment: (§1) Inhibition of FLAP in human whole blood assessed as reduction in calcium ionophore-stimulated LTB4 production preincubated for 30 mins followed by calcium ionophore stimulation and measured after 20 mins by EIA; type: tissue-based
T1 sequence (whole entry): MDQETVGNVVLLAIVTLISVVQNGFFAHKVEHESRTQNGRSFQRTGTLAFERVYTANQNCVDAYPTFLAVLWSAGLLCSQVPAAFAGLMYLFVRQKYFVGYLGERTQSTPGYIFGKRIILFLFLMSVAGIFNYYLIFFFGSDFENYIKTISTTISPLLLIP

[2] = Distribution coefficient between octanol and sodium phosphate buffer, logD of the compound in pH 7.4 buffer by LC-MS/MS-based shake flask method
[3] = molecular target: T2, Arachidonate 5-lipoxygenase-activating protein (Homo sapiens, UniProt P20292); experiment: Inhibition of [3H]MK0591 binding to human FLAP expressed in […] cell membranes measured after 60 to 80 mins by scintillation counting method
T2 sequence (P20292 whole entry): T1 sequence (whole entry)

[4] = molecular target: T2, Arachidonate 5-lipoxygenase-activating protein; experiment: as §1; type: tissue-based
[5] = Volume of distribution at steady state in po or iv dosed Sprague-Dawley rat; type: ADME, organism-based; conditions: in vivo, read-out: Vdss
[6] = Half-life in po or iv dosed Sprague-Dawley rat; type: ADME, organism-based; conditions: in vivo
[7] = physchem; conditions: phosphate buffer, pH 7.4
Description: Aqueous solubility in pH 7.4 phosphate buffer after 24 hrs by UPLC/MS/MS analysis

[8] = Protein binding in human plasma assessed as unbound fraction by LC-MS based equilibrium dialysis analysis; type: ADME, cell-free
[9] = molecular target: CYP450 (Homo sapiens, UniProt P04798+P05177+P05181+P08684+P10632+P10635+P11509+P11712+P13584+P20813+P20815+P20853+P24462+P24903+P33260+P33261+P51589+P78329+P98187+Q02928+Q08477+Q16678+Q16696+Q5TCH4+Q6VVX0+Q7Z449+Q8TAV3+Q96SQ9+Q9HB55); experiment: Inhibition of CYP450 assessed as maximum reduction in metabolite formation using coumarin based substrate by fluorescence assay; type: ADME, protein assay; conditions: probe coumarin based substrate
[10] = Apparent permeability across apical to basolateral side in human Caco2 cells; conditions: Caco-2
[11] = Protein binding in Sprague-Dawley rat plasma assessed as unbound fraction by LC-MS based equilibrium dialysis analysis; type: ADME, cell-free
[12] = Intrinsic clearance in cryopreserved human hepatocytes assessed as per million cells at 1 uM measured up to 60 mins by LC-MS/MS analysis; type: ADME, cell-based, Hepatocyte; conditions: read-out: CLH
[13] = Bioavailability in po dosed Sprague-Dawley rat; type: ADME, organism-based; conditions: in vivo
[14] = Clearance in po or iv dosed Sprague-Dawley rat; type: ADME, organism-based; conditions: in vivo
[15] = molecular target: Voltage-gated inwardly rectifying potassium channel KCNH2 (Homo sapiens, UniProt Q12809); experiment: Inhibition of human ERG by high-throughput electrophysiology assay
[16] = molecular target: Cytochrome P450 2C9 (Homo sapiens, UniProt P11712); experiment: Inhibition of recombinant human CYP2C9 expressed in Escherichia coli assessed as maximum reduction in metabolite formation using coumarin based substrate by fluorescence assay; type: ADME
[17] = molecular target: hERG (KCNH2) (Homo sapiens, UniProt Q12809); experiment: Inhibition of human ERG at 10 uM high-throughput electrophysiology assay relative to control
[18] = Metabolic stability in human hepatocytes assessed as parent compound remaining; type: ADME, cell-based, Hepatocyte
[19] = molecular target: T1, Arachidonate 5-lipoxygenase-activating protein (Homo sapiens); experiment: (§2) Inhibition of FLAP in human whole blood assessed as reduction in calcium ionophore-stimulated LTB4 production preincubated for 4 hrs followed by calcium ionophore stimulation and measured after 20 mins by EIA; type: tissue-based
[20] = molecular target: T2, Arachidonate 5-lipoxygenase-activating protein; experiment: as §2; type: tissue-based

Cytochrome P450 2C9, sequence (P11712 whole entry): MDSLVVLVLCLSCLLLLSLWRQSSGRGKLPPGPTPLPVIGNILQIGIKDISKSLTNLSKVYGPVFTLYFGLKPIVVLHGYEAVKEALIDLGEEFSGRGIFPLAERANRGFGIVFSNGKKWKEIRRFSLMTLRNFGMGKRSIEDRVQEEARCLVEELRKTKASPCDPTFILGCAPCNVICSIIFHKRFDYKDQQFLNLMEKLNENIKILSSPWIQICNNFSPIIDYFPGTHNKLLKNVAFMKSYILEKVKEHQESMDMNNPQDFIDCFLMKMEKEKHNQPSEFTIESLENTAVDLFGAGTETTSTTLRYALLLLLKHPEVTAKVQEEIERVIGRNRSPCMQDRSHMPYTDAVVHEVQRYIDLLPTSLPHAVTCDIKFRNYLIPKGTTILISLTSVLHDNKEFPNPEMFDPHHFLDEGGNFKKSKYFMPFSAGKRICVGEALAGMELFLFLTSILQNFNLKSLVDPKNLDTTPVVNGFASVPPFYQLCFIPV
Voltage-gated inwardly rectifying potassium channel KCNH2, sequence (Q12809 whole entry): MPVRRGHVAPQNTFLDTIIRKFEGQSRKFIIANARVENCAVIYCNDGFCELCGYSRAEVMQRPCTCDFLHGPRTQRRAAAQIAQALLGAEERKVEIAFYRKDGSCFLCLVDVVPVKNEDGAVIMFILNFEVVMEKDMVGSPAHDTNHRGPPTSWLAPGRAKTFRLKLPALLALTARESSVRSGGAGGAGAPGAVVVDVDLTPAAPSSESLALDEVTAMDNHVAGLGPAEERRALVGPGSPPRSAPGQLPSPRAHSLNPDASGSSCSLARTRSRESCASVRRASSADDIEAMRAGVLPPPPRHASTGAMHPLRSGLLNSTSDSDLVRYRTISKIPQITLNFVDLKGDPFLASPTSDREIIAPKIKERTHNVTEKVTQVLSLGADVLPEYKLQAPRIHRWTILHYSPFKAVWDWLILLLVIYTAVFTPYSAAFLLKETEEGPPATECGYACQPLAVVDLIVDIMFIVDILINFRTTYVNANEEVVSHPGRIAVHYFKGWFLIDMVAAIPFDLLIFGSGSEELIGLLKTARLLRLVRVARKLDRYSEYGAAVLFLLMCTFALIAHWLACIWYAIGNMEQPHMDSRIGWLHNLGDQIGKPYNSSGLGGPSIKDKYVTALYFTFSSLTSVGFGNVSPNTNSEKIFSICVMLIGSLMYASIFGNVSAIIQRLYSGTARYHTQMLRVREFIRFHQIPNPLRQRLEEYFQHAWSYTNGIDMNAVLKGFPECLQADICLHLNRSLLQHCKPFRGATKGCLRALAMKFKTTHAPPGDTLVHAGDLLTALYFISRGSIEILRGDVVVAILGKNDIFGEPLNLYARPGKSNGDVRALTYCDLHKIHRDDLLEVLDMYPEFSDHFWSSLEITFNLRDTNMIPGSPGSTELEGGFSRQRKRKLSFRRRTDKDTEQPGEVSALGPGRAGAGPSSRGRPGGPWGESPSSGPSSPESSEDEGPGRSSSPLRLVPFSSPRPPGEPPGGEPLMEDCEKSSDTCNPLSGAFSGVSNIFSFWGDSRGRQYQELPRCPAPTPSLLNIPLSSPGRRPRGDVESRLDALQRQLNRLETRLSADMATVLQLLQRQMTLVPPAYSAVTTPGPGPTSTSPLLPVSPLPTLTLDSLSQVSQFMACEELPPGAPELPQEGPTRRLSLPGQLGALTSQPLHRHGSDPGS
hERG (KCNH2), sequence (Q12809 whole entry): as above

fpIC50 [1]	logD [2]	pIC50 [3]	pIC50 [4]	hepatocyte CLint at 1 µM [12] [µL/min/1e6 cells]	SMILES	other results
8.5					Cn1cc(NC(=O)[C@@H]2CCCC[C@H]2C(=O)c2ccc(-c3cc[nH]n3)cc2)c(OC(F)F)n1	
7.9					Cc1cc(-c2ccc(C(=O)[C@@H]3CCCC[C@H]3C(=O)Nc3cn(C)nc3C(N)=O)cc2)[nH]n1	
6.7	3	6.60	5.60		O=C(NCCc1ccccn1)[C@@H]1CCCC[C@H]1C(=O)c1ccc(-c2cc[nH]n2)cc1	
	3.1	6.00			Cc1nn(C)cc1NC(=O)[C@@H]1CCCC[C@H]1C(=O)c1ccc(-c2ccc[nH]2)cc1 (racemic)	
		7.30	6.70		Cc1nn(C)cc1NC(=O)[C@@H]1CCCC[C@H]1C(=O)c1ccc(-c2cc[nH]n2)cc1 [listing 1 of 2 here]	
8	2.9	6.90	7.20	14	Cc1nn(C)cc1NC(=O)[C@@H]1CCCC[C@H]1C(=O)c1ccc(-c2cc[nH]n2)cc1F (racemic)	Vd [5]: 1.1 L/kg; half-life [6]: 1.2 h; solubility at 24 h [7]: 500 µM (≈ 205 µg/mL); fraction unbound [8]: 0.14; pIC50 [9]: < 4.70; Papp A→B [10]: 34 ×10⁻⁶ cm/s; fraction unbound [11]: 0.11; bioavailability [13]: 85%; clearance [14]: 13.3 mL/min/kg; pIC50 [15]: < 4.90
8.5	3.7	7.90	7.30	12	Cn1ncc(NC(=O)[C@@H]2C[C@@H]3C[C@@H]3C[C@H]2C(=O)c2ccc(-c3cc[nH]n3)cc2)c1C(F)(F)F	Vd [5]: 1.1 L/kg; half-life [6]: 1.4 h; pIC50 [16]: 5.30; solubility at 24 h [7]: 63 µM (≈ 28.8 µg/mL); fraction unbound [8]: 0.066; Papp A→B [10]: 59 ×10⁻⁶ cm/s; fraction unbound [11]: 0.04; bioavailability [13]: 100%; clearance [14]: 9.8 mL/min/kg
7.4					Cc1nn(C)cc1NC(=O)[C@@H]1CCCC[C@H]1C(=O)c1ccc(-c2cc[nH]n2)cc1 [listing 2 of 2 here]	
8.4	2.9	7.50	7.40	5	O=C(Nc1cnn2cccnc12)[C@@H]1CCCC[C@H]1C(=O)c1ccc(-c2cc[nH]n2)cc1	solubility at 24 h [7]: 60 µM (≈ 24.9 µg/mL); pIC50 [9]: < 4.70; Papp A→B [10]: 12 ×10⁻⁶ cm/s; pIC50 [15]: < 4.50
7.1	4	7.20	6.70		Cc1nn(C)cc1NC(=O)[C@@H]1[C@H]2CC[C@H](CC2)[C@H]1C(=O)c1ccc(-c2cc[nH]n2)cc1F (racemic)	
	2.6	7.10	6.30	< 4	Cc1nn(C)cc1NC(=O)[C@@H]1CCCC[C@H]1C(=O)c1ccc(-c2cc[nH]n2)cc1 (racemic) [listing 1 of 2 here]	solubility at 24 h [7]: 92 µM (≈ 36 µg/mL); pIC50 [9]: < 4.70; Papp A→B [10]: 26 ×10⁻⁶ cm/s; pIC50 [15]: < 4.90
8.4	3.6	7.40	7.30	7	Cn1ncc(NC(=O)[C@@H]2CCCC[C@H]2C(=O)c2ccc(-c3cc[nH]n3)cc2)c1C(F)(F)F	Vd [5]: 0.97 L/kg; half-life [6]: 3 h; pIC50 [16]: 5.20; inhibition at 10 µM [17]: 32%; solubility at 24 h [7]: 80 µM (≈ 35.6 µg/mL); fraction unbound [8]: 0.075; Papp A→B [10]: 59 ×10⁻⁶ cm/s; fraction unbound [11]: 0.042; Stability [18]: 83%; bioavailability [13]: 100%; clearance [14]: 4.8 mL/min/kg
9.3	3.9	7.80	7.80	22	COc1cc(NC(=O)[C@@H]2CCCC[C@H]2C(=O)c2ccc(-c3cc[nH]n3)cc2)ncn1	pIC50 [16]: 5.30; solubility at 24 h [7]: 22 µM (≈ 8.92 µg/mL); Papp A→B [10]: 69 ×10⁻⁶ cm/s; pIC50 [15]: 4.90
		6.70	6.30	6	Cc1noc(C)c1NC(=O)[C@@H]1CCCC[C@H]1C(=O)c1ccc(-c2cc[nH]n2)cc1 (racemic)	
5.8	1.8	6.00	5.40		Cc1nn(C)cc1NC(=O)[C@@H]1CCCC[C@H]1C(=O)c1ccc(-c2cc[nH]n2)nc1 (racemic)	
6.8	2.8	6.30	5.70		Cc1nn(C)cc1NC(=O)[C@@H]1CCCC[C@H]1C(=O)c1ccc(-c2ccccn2)cc1 (racemic)	
5.8		5.70	5.10		Cc1nn(C)cc1NC(=O)[C@H]1CCCC[C@@H]1C(=O)c1ccc(-c2cc[nH]n2)cc1	
	3.9	5.60			CC(=O)c1cccc(-c2ccc(C(=O)[C@@H]3CCCC[C@H]3C(=O)Nc3c(C)noc3C)cc2)c1 (racemic)	
5.1	2.5	4.60	4.50		Cc1nn(C)cc1NC(=O)[C@@H]1CCCC[C@H]1C(=O)c1ccc(-c2ccnn2C)cc1 (racemic)	
	3.1			12	Cc1cc(-c2ccc(C(=O)[C@@H]3CCCC[C@H]3C(=O)Nc3cn(C)nc3C(N)=O)cc2)n[nH]1	Vd [5]: 0.64 L/kg; half-life [6]: 1.4 h; pIC50 [16]: 5.00; solubility at 24 h [7]: 60 µM (≈ 26.1 µg/mL); fraction unbound [8]: 0.076; Papp A→B [10]: 22 ×10⁻⁶ cm/s; fraction unbound [11]: 0.024; Stability [18]: 79%; bioavailability [13]: 40%; clearance [14]: 5.5 mL/min/kg; pIC50 [15]: < 4.50
8.5		7.60	7.30	12	Cn1cc(NC(=O)[C@@H]2CCCC[C@H]2C(=O)c2ccc(-c3cc[nH]n3)cc2)c(C(F)(F)F)n1	Vd [5]: 1 L/kg; half-life [6]: 1.6 h; fraction unbound [8]: 0.063; fraction unbound [11]: 0.054; Stability [18]: 62%; bioavailability [13]: 62%; clearance [14]: 6.8 mL/min/kg
6.9	3	6.00	6.10		Cc1cc(-c2cc[nH]n2)ccc1C(=O)[C@@H]1CCCC[C@H]1C(=O)Nc1cn(C)nc1C (racemic)	
	3.4	7.10		13	Cc1cc(-c2ccc3c([C@@H]4CCCC[C@H]4C(=O)Nc4cn(C)nc4C(N)=O)noc3c2)n[nH]1	fpIC50 [19]: 8.5; pIC50 [20]: 7.20; pIC50 [16]: 5.10; solubility at 24 h [7]: 27 µM (≈ 12.1 µg/mL); Papp A→B [10]: 7 ×10⁻⁶ cm/s; Stability [18]: 68%; pIC50 [15]: < 4.50
	2.1	7.20			CC(C)(CNC(=O)[C@@H]1CCCC[C@H]1C(=O)c1ccc(-c2cc[nH]n2)cc1)S(C)(=O)=O	fpIC50 [19]: 7.4; pIC50 [20]: 6.90
7.4	3.6	6.50	5.70		Cc1cnn(-c2ccc(C(=O)[C@@H]3CCCC[C@H]3C(=O)Nc3cccc(C(N)=O)c3)cc2)c1 (racemic)	
	3.1	6.00			Cc1c[nH]nc1-c1ccc(C(=O)[C@@H]2CCCC[C@H]2C(=O)Nc2cn(C)nc2C)cc1 (racemic)	
7.1					Cc1nn(C)cc1NC(=O)[C@@H]1CCCC[C@H]1C(=O)c1ccc(-c2cc[nH]n2)cc1 (racemic) [listing 2 of 2 here]	
7.5	3	6.70	6.60		Cc1nn(C)cc1N(C)C(=O)[C@@H]1CCCC[C@H]1C(=O)c1ccc(-c2cc[nH]n2)cc1	
